In article PMC12114375, “Discovery of Hydrazineyl Amide Derivative of Pseudolaric Acid B for Reprogramming Tumor-Associated Macrophages Against Tumor Growth” (Molecules, 2025):

Test system: ARG1, NOS2, CD206 and MHC II mRNA expression in BMDMs
Assay: qRT-PCR of ARG1, NOS2, CD206, MHC II in BMDMs
Assay type: cell-based, mouse
Details: BMDMs stimulated with IL-4/IL-13, different concentrations, 12 h
Experimental: We also extended the test to primary murine macrophages derived from bone marrow (BMDMs), which were cultured in vitro with recombinant mouse M-CSF for 6 days. The BMDMs were then stimulated with IL-4/IL-13, leading to their transformation into M2-like pro-tumoral macrophages. This transformation was characterized by an increase in both ARG1 and CD206 expression and a decrease in both NOS2 and MHC II expression. […] Subsequently, we assessed the capacity of compound 12 to inhibit the M2-like polarization of macrophages using CSF-1-differentiated mouse BMDMs. These cells were treated with IL-4 and IL-13 for 48 h, and the expression levels of CD206, an M2-type marker, and CD86, an M1-type marker, were analyzed via flow cytometry. […]
Figure 2 Compound 12 inhibits the M2-like polarized phenotype of macrophages. […] The expression levels of the markers CD206 and CD86 on induced macrophages were determined by flow cytometry, and the mean fluorescence intensity (MFI) was analyzed with FlowJo (C), or the cells were lysed and immunoblotted to detect the indicated proteins (D). […] Data are represented as means ± SD. ^### p < 0.001 vs. non-stimulated control group, * p < 0.05, ** p < 0.01, *** p < 0.001 vs. stimulated control group. p-values were determined using one-way ANOVA.

With `COC(=O)C1=CC[C@@]23CC[C@@H]([C@@](C)(/C=C/C=C(\C)C(=O)NNCCO)OC2=O)[C@@]3(OC(C)=O)CC1` [compound 12, Methyl(3R,4S,4aS,9aR)-4a-acetoxy-3-((1E,3E)-5-(2-(2-hydroxyethyl)hydrazineyl)-4-methyl-5-oxopenta-1,3-dien-1-yl)-3-methyl-1-oxo-3,4,4a,5,6,9-hexahydro-1H-4,9a-ethanocyclohepta[c]pyran-7-carboxylate] the “IL-4/IL-13-induced increase in ARG1 and CD206 and decrease in NOS2 and MHC II expression” value was “significantly reversed these trends”.
